In patent publication US8252740B2, “Thermally-targeted delivery of medicaments including doxorubicin” (The University of Mississippi Medical Center, priority 2006, dated 2012):

Legend:
Assay type in all cases: cell-based, human
MES-SA cells [1] = assay: Confocal fluorescence microscopy of intracellular localization; conditions: 10 μM
Procedure: 1.7. Laser Scanning Confocal Fluorescence Microscopy. MES-SA cells were plated on 22 mm^2 cover slips at approximately 50% confluence and treated as described above with Tat-ELP-GFLG-Dox (SEQ ID NO: 3). Cells were rinsed with PBS at the indicated times, fixed with paraformaldehyde (PFA, 2% v/v) and visualized using a TCS SP2 laser scanning confocal microscope with a 100× oil immersion objective (Leica, Wetzlar, Germany). PMT voltages were lowered for imaging of cells treated at 42° C. during image acquisition to maximize image resolution and intensity.
3.4. Cellular Distribution. To confirm that Tat-ELP-GFLG-Dox (SEQ ID NO: 3) was internalized and not merely attached to the cell exterior, the cellular distribution of the ELP-delivered drug was examined by confocal fluorescence microscopy. MES-SA cells were treated for 1 h at 37° C. and 42° C. with 10 μM Tat-ELP1-GFLG-Dox (SEQ ID NO: 3). The cells were rinsed and analyzed immediately after treatment and 24 h later using the intrinsic Dox fluorescence. […] Untreated cells had no signal under the imaging settings used, ruling out any contribution to the images from autofluorescence (FIG. 7B, right panel).

MES-SA cells [2] = assay: Caspase activation, FLICA polycaspase assay with flow cytometry; conditions: 10 μM
Procedure: MES-SA cells were treated for 1 h at 37 or 42° C. with Tat-ELP-GFLG-DOX (SEQ ID NO: 3), the control construct lacking the Tat sequence, with free DOX. Cells were harvested after the 1 h exposure, and caspase activity was detected using a fluorescent caspase inhibitor (Immunochemistry Technologies, Bloomington, Minn.) and flow cytometry.
Caspase activation was measured using a carboxyfluorescein FLICA polycaspase assay (Immunochemistry Technologies, Bloomington, Minn.). Cells were treated as described above with the indicated protein, collected by trypsinization, and stained for 2 h at 37° C. with the carboxyfluorescein FLICA reagent as described by the manufacturer. Cells were rinsed twice and analyzed for caspase activation by flow cytometry using a Cytomics FC 500 flow cytometer (n=5,000 cells). Forward versus side scatter gating was used to eliminate cell debris from the analysis, and a histogram of fluorescein fluorescence (channel FL1) was bimodal with peaks for caspase positive and caspase negative cells. The percentage of caspase positive cells was determined from the histograms and expressed as an average of 3 experiments.
MES-SA cells were treated as described above, cells were harvested after the 1 h exposure, and caspase activity was detected using a fluorescent caspase inhibitor and flow cytometric analysis. […] Cell numbers under each peak were quantified and averaged to determine the percentage of the cell population in which caspases were activated under each treatment condition. […] In fact, the percent of caspase positive cells was enhanced almost 4 fold when cells were treated with Tat-ELP1-GFLG-Dox (SEQ ID NO: 3) at 42° C. versus 37° C. (p<0.05).

[3] = test system: MES-SA uterine sarcoma cells; assay: Polypeptide uptake by flow cytometry of Dox fluorescence
Procedure: In order to test whether the induction of ELP aggregation with hyperthermia can enhance the cellular uptake of the polypeptide, MES-SA uterine sarcoma cells were incubated with Tat-ELP-GFLG-DOX (SEQ ID NO: 3) for 1 h at either 37 or 42° C. Cells were then analyzed by flow cytometry, using the natural DOX fluorescence to quantify the amount of drug in the cells. When treated with the ELP1 containing construct, which aggregates at 40° C., the amount of drug delivered to the cells increases almost 2-fold (FIG. 10). […] This illustrates that the enhanced uptake observed after hyperthermia is the result of the ELP phase transition, not nonspecific effects of hyperthermia.
1.6. Polypeptide Uptake. Cells were treated with 20 μM Tat-ELP1-GFLG-Dox (SEQ ID NO: 3), Tat-ELP2-GFLG-Dox (SEQ ID NO: 3), or control polypeptides lacking the Tat sequence as described above. Duplicate plates were treated for 1 h at 37° C. and 42° C. Cells were rinsed with PBS and harvested using nonenzymatic cell dissociation buffer (Invitrogen), centrifuged for 2 min, and resuspended in 0.5 ml PBS. Total uptake of the doxorubicin labeled polypeptides was measured using the intrinsic Dox fluorescence by a Cytomics FC 500 flow cytometer (Beckman Coulter, Fullerton, Calif.). Forward versus side scatter gating was used to remove cell debris from the analysis, and Dox fluorescence was measured using FL3. Each histogram was a unimodal peak (n=5000 cells), and the peak mean was normalized to propidium standard beads.
3.3. Cellular Uptake of ELP-delivered Doxorubicin. MES-SA uterine sarcoma cells were used in this study to evaluate the efficiency of ELP-mediated cellular delivery of doxorubicin. […] After harvesting the cells with non-enzymatic cell dissociation buffer to prevent degradation of polypeptide attached to the cell surface, the non-fixed cells were analyzed by flow cytometry to measure the Dox fluorescence. […] Cellular fluorescence was increased over 2 fold when the MES-SA cells were treated with Tat-ELP1-GFLG-Dox (SEQ ID NO: 3) at 42° C. rather than 37° C. […]

MES-SA cells [4] = assay: DIC microscopy of apoptotic cell morphology; conditions: 10 μM
Procedure: 1.9. Apoptosis Assays. For differential interference contrast (DIC) microscopy, MES-SA cells were plated onto 22 mm^2 coverslips at 50% confluence. Cells were treated as described above with the indicated protein, rinsed with PBS, and mounted onto glass slides. The unfixed cells were imaged immediately using a Zeiss Axiovert 200 DIC microscope with a 40× oil immersion objective and a Coolsnap HQ camera.
2.6. Induction of Apoptosis. […] This effect was documented by treating MES-SA cells adhered to glass cover slips with each construct and imaging them by DIC microscopy. Cells were treated for 1 h as described above, then immediately mounted on slides and imaged without fixation. […] Untreated cells were spread onto the glass, and morphological features such as nuclei and endocytic vesicles were readily visible. This morphology was not altered by simply exposing the cells to hyperthermia. […] However, such effects were minor and limited to a fraction of the cells. […] All cells examined were rounded with no discernable nucleus and fragmented chromosomes.

Tat-ELP1-GFLG-Dox
Intracellular localization of Dox (MES-SA cells [1]; 24 h after 1 h exposure): remained in the cell cytoplasm | Intracellular localization of Dox (MES-SA cells [1]; after 1 h exposure): plasma and nuclear membranes as well as in a punctate pattern in the cytoplasm | Enhancement of percent caspase positive cells at 42° C. versus 37° C. (MES-SA cells [2]; 1 h): ~4 fold | Caspase activation / apoptosis induction (MES-SA cells [2]; 1 h at 37° C.): slightly above control levels | Caspase activation / apoptosis induction (MES-SA cells [2]; 1 h at 42° C.): significantly higher proportion of the population | Increase of drug delivered to cells at 42° C. versus 37° C. ([3]; 10 μM, 1 h (FIG. 10)): ~2 fold | Increase of cellular fluorescence at 42° C. versus 37° C. ([3]; 20 μM, 1 h): over 2 fold | Uptake relative to ELP1-GFLG-Dox ([3]; 20 μM, 1 h, 42° C.): 6 fold | Cell morphology (hallmarks of apoptosis) (MES-SA cells [4]; 1 h at 37° C. (below the Tt)): more extensive rounding and blebbing | Cell morphology (hallmarks of apoptosis) (MES-SA cells [4]; 1 h at 42° C. (above the Tt)): normal cell morphology was completely destroyed
